From patent US20260355196A1, “INHIBITORS AND DEGRADERS OF PIP4K PROTEIN” (Larkspur Biosciences, Inc., priority 2023, published 2026)

Each molecule was assayed against T1, PIP4K2C (Homo sapiens, UniProt Q8TBX8) (assay: HiBiT PIP4K2C degradation assay in MOLT-4 cells (endogenous PIP4K2C C-terminally tagged with HiBiT)). Details: 6 hours of incubation time, rather than 24 hours; MOLT-4, top concentration 10 micromolar; read-out: HiBIT-degradation MOLT4 PIP4k2C DC50 (6 hours, marked *).
T1 sequence (Q8TBX8 1-421): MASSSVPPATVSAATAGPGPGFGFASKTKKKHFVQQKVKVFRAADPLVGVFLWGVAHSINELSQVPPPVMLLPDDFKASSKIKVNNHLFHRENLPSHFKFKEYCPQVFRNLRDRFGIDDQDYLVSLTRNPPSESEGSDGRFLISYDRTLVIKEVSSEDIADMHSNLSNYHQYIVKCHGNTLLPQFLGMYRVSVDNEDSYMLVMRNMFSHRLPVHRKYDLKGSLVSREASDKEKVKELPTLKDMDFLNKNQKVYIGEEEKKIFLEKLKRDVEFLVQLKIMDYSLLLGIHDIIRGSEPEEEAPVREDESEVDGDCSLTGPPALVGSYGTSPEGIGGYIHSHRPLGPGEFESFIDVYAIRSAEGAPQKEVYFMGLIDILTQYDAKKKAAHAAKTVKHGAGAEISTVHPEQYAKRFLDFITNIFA
Type: cell-based
Design: untagged in primary human PBMCs and monocyte-derived dendritic cells
How it was run: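 Cells are plated onto compound dilutions (10 points, 3-fold, top 10 micromolar) and incubated 24 or 6 hours at 37 C. Lytic HiBiT detection then quantifies tagged endogenous PIP4K2C in MOLT-4, and a Hill fit yields DC50.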

DC50, < 500 nM:
O=C1CC[C@H](Nc2ccc(N3CCN(C[C@H]4CC[C@H](CNC(=O)[C@H]5CC[C@H](Nc6ncc(F)c(-c7cccc(-n8ccccc8=O)c7)n6)CC5)CC4)CC3)c(F)c2)C(=O)N1 (single isomer, unassigned) [Compound 460]
O=C1CCC(Nc2ccc(N3CCN(C[C@H]4CC[C@H](CC(=O)N[C@H]5CC[C@H](Nc6ncc(F)c(-c7cccc(N8CCOCC8=O)c7)n6)CC5)CC4)CC3)c(F)c2)C(=O)N1 (stereo partly drawn) [Compound 562, trans-2-((1r,4R)-4-((4-(4-((2,6-dioxopiperidin-3-yl)amino)-2-fluorophenyl)piperazin-1-yl)methyl)cyclohexyl)-N-((1r,4R)-4-((5-fluoro-4-(3-(3-oxomorpholino)phenyl)pyrimidin-2-yl)amino)cyclohexyl)acetamide]
O=C1CC[C@@H](Nc2ccc(C3CCN([C@H]4CC[C@H](C(=O)N[C@H]5CC[C@H](Nc6ncc(F)c(-c7cccc(-c8ccc[nH]c8=O)c7)n6)CC5)CC4)CC3)c(F)c2)C(=O)N1 [Compound 454, trans-4-(4-(4-(((R)-2,6-dioxopiperidin-3-yl)amino)-2-fluorophenyl)piperidin-1-yl)-N-(trans-4-((5-fluoro-4-(3-(2-oxo-1,2-dihydropyridin-3-yl)phenyl)pyrimidin-2-yl)amino)cyclohexyl)cyclohexane-1-carboxamide]
O=C1CCC(Nc2ccc(C3CCN([C@H]4CC[C@H](NC(=O)[C@H]5CC[C@H](Nc6ncc(F)c(-c7ccnc(C8(O)CCC8)c7)n6)CC5)CC4)CC3)c(F)c2)C(=O)N1 (stereo partly drawn) [Compound 548, trans-N-(trans-4-(4-(4-((2,6-dioxopiperidin-3-yl)amino)-2-fluorophenyl)piperidin-1-yl)cyclohexyl)-4-((5-fluoro-4-(2-(1-hydroxycyclobutyl)pyridin-4-yl)pyrimidin-2-yl)amino)cyclohexane-1-carboxamide]
O=C1CCC(n2c(=O)oc3cc(C4CCN(CCC5CCN(C(=O)[C@@H]6CCC[C@H](Nc7ncc(F)c(-c8cccc(-n9ccccc9=O)c8)n7)C6)CC5)CC4)ccc32)C(=O)N1 (stereo partly drawn) [Compound 350, 3-(6-(1-(2-(1-((1R,3S)-3-((5-fluoro-4-(3-(2-oxopyridin-1(2H)-yl)phenyl)pyrimidin-2-yl)amino)cyclohexane-1-carbonyl)piperidin-4-yl)ethyl)piperidin-4-yl)-2-oxobenzo[d]oxazol-3 (2H)-yl)piperidine-2,6-dione]
O=C1CCC(Nc2ccc(C3CCN(CCC4CCN(C(=O)O[C@H]5CC[C@H](Nc6ncc(F)c(-c7cccc(-n8ccccc8=O)c7)n6)CC5)CC4)CC3)c(F)c2)C(=O)N1 (stereo partly drawn) [Compound 697, trans-4-((5-fluoro-4-(3-(2-oxopyridin-1 (2H)-yl)phenyl)pyrimidin-2-yl)amino)cyclohexyl 4-(2-(4-(4-((2,6-dioxopiperidin-3-yl)amino)-2-fluorophenyl)piperidin-1-yl)ethyl)piperidine-1-carboxylate]
O=C1CCC(Nc2ccc(N3CCC(N4CCC(C(=O)N[C@H]5CC[C@H](Nc6ncc(F)c(-c7cccc(-c8ccc[nH]c8=O)c7)n6)CC5)CC4)C(F)(F)C3)c(F)c2)C(=O)N1 (stereo partly drawn) [Compound 599, 1′-(4-((2,6-dioxopiperidin-3-yl)amino)-2-fluorophenyl)-3′,3′-difluoro-N-(trans-4-((5-fluoro-4-(3-(2-oxo-1,2-dihydropyridin-3-yl)phenyl)pyrimidin-2-yl)amino)cyclohexyl)-[1,4′-bipiperidine]-4-carboxamide]
Cn1nc(C2CCC(=O)NC2=O)c2ccc(C3CCN(C[C@H]4CC[C@H](OC(=O)N5CCC(Nc6ncc(F)c(-c7cccc(-n8ccccc8=O)c7)n6)CC5)CC4)CC3)cc21 (stereo partly drawn) [Compound 679, trans-4-((4-(3-(2,6-dioxopiperidin-3-yl)-1-methyl-1H-indazol-6-yl)piperidin-1-yl)methyl)cyclohexyl 4-((5-fluoro-4-(3-(2-oxopyridin-1 (2H)-yl)phenyl)pyrimidin-2-yl)amino)piperidine-1-carboxylate]
O=C1CCC(Nc2ccc(C3CCN([C@H]4CC[C@H](C(=O)N[C@H]5CC[C@H](Nc6ncc(F)c(-c7cccc(C(=O)N8CC[C@H](O)C8)c7)n6)CC5)CC4)CC3)c(F)c2)C(=O)N1 (stereo partly drawn) [Compound 511, trans-4-(4-(4-((2,6-dioxopiperidin-3-yl)amino)-2-fluorophenyl)piperidin-1-yl)-N-(trans-4-((5-fluoro-4-(3-((S)-3-hydroxypyrrolidine-1-carbonyl)phenyl)pyrimidin-2-yl)amino)cyclohexyl)cyclohexane-1-carboxamide]
O=C1CCC(Nc2ccc(C3CCN([C@H]4CC[C@H](NC(=O)[C@H]5CC[C@H](Nc6ncc(F)c(-c7cccc(N8CCCCC8=O)n7)n6)CC5)CC4)CC3)c(F)c2)C(=O)N1 (stereo partly drawn) [Compound 546, trans-N-(trans-4-(4-(4-((2,6-dioxopiperidin-3-yl)amino)-2-fluorophenyl)piperidin-1-yl)cyclohexyl)-4-((5-fluoro-4-(6-(2-oxopiperidin-1-yl)pyridin-2-yl)pyrimidin-2-yl)amino)cyclohexane-1-carboxamide]
O=C1CCC(Nc2ccc(N3CCC(N4CCC(C(=O)N[C@H]5CC[C@H](Nc6ncc(F)c(-c7cccc(-c8ccccc8)c7)n6)CC5)CC4)CC3)c(F)c2)C(=O)N1 (stereo partly drawn) [Compound 649, trans-N-(4-((4-([1,1′-biphenyl]-3-yl)-5-fluoropyrimidin-2-yl)amino)cyclohexyl)-1′-(4-((2,6-dioxopiperidin-3-yl)amino)-2-fluorophenyl)-[1,4′-bipiperidine]-4-carboxamide]

Same assay, conditions: 24 hours incubation, MOLT-4, top concentration 10 micromolar; read-out: HiBIT-degradation MOLT4 PIP4k2C 24 hours DC50

DC50, < 500 nM:
O=C1CCC(N2Cc3cc(OC4CCN(CCC5CCN(C(=O)[C@H]6CCC[C@@H](Nc7ncc(Cl)c(-c8cccc(-c9ccccc9)c8)n7)C6)CC5)CC4)ccc3C2=O)C(=O)N1 (relative stereo) [Compound 79, cis-3-(5-((1-(2-(1-(3-((4-([1,1′-biphenyl]-3-yl)-5-chloropyrimidin-2-yl)amino)cyclohexane-1-carbonyl)piperidin-4-yl)ethyl)piperidin-4-yl)oxy)-1-oxoisoindolin-2-yl)piperidine-2,6-dione]
O=C1CCC(n2c(=O)oc3cc(N4CCC(CCN5CCC(C(=O)N6CCC(Nc7ncc(F)c(-c8cccc(-n9ccccc9=O)c8)n7)CC6)CC5)CC4)ccc32)C(=O)N1 (stereo not drawn) [Compound 330, 3-[6-[4-[2-[4-[4-[[5-fluoro-4-[3-(2-oxo-1-pyridyl)phenyl]pyrimidin-2-yl]amino]piperidine-1-carbonyl]-1-piperidyl]ethyl]-1-piperidyl]-2-oxo-1,3-benzoxazol-3-yl]piperidine-2,6-dione]
Cn1c(=O)n(C2CCC(=O)NC2=O)c2ccc(C3CCN(CCN4CCC(C(=O)N5CCC(Nc6ncc(Cl)c(-c7cccc(-c8ccccc8)c7)n6)CC5)CC4)CC3)cc21 (stereo not drawn) [Compound 45, 3-[5-[1-[2-[4-[4-[[5-chloro-4-(3-phenylphenyl)pyrimidin-2-yl]amino]piperidine-1-carbonyl]-1-piperidyl]ethyl]-4-piperidyl]-3-methyl-2-oxo-benzimidazol-1-yl]piperidine-2,6-dione]
O=C1CCC(N2Cc3cc(OC4CCN(C(=O)CN5CCC(C(=O)N6CCC(Nc7ncc(Cl)c(-c8cccc(-c9ccccc9)c8)n7)CC6)CC5)CC4)ccc3C2=O)C(=O)N1 (stereo not drawn) [Compound 83, 3-(5-((1-(2-(4-(4-((4-([1,1′-biphenyl]-3-yl)-5-chloropyrimidin-2-yl)amino)piperidine-1-carbonyl)piperidin-1-yl)acetyl)piperidin-4-yl)oxy)-1-oxoisoindolin-2-yl)piperidine-2,6-dione]
O=C1CCC(n2c(=O)oc3cc(C4CCN(CC5CCN(CC(=O)N6CCC(Nc7ncc(Cl)c(-c8cccc(-c9ccc(F)cc9)c8)n7)CC6)CC5)CC4)ccc32)C(=O)N1 (stereo not drawn) [Compound 294, 3-(6-(1-((1-(2-(4-((5-chloro-4-(4′-fluoro-[1,1′-biphenyl]-3-yl)pyrimidin-2-yl)amino)piperidin-1-yl)-2-oxoethyl)piperidin-4-yl)methyl)piperidin-4-yl)-2-oxobenzo[d]oxazol-3 (2H)-yl)piperidine-2,6-dione]
O=C1CCC(n2c(=O)oc3cc(C4CCN(CC5CCN(C(=O)[C@H]6CC[C@H](Nc7ncc(F)c(-c8cccc(-n9ccccc9=O)c8)n7)CC6)CC5)CC4)ccc32)C(=O)N1 (stereo partly drawn) [Compound 323, trans-3-(6-(1-((1-(4-((5-fluoro-4-(3-(2-oxopyridin-1(2H)-yl)phenyl)pyrimidin-2-yl)amino)cyclohexane-1-carbonyl)piperidin-4-yl)methyl)piperidin-4-yl)-2-oxobenzo[d]oxazol-3 (2H)-yl)piperidine-2,6-dione]

Same assay, conditions: read-out: HiBIT-degradation MOLT4 PIP4k2C 24 hours DC50; 24 hours incubation, MOLT-4, top concentration 10 micromolar

DC50, < 500 nM:
Cn1c(=O)n(C2CCC(=O)NC2=O)c2ccc(N3CCC(N4CCC(C(=O)N[C@H]5CC[C@H](Nc6ncc(F)c(-c7cccc(-n8ccccc8=O)c7)n6)CC5)CC4)CC3)cc21 (stereo partly drawn) [Compound 344, trans-1′-(1-(2,6-dioxopiperidin-3-yl)-3-methyl-2-oxo-2,3-dihydro-1H-benzo[d]imidazol-5-yl)-N-(4-((5-fluoro-4-(3-(2-oxopyridin-1(2H)-yl)phenyl)pyrimidin-2-yl)amino)cyclohexyl)-[1,4′-bipiperidine]-4-carboxamide]
